{"source": "the OPERA property sets (Mansouri et al. 2018)", "data": [{"units": {"melting point": "°C", "boiling point": "°C"}, "values": [{"smiles": "CC(C)(C)NCC(O)c1ccc(O)c(CO)c1", "note": "(configuration not stated)", "melting point": 151}, {"smiles": "Cc1ccc(I)cc1", "boiling point": 211, "melting point": 36.5}, {"smiles": "Nc1cccc2cc(O)ccc12", "melting point": 191}, {"smiles": "CC(C)(C)C(O)C(Oc1ccc(-c2ccccc2)cc1)n1cncn1", "note": "(configuration not stated)", "melting point": 127}, {"smiles": "OC[C@H]1O[C@@H](Oc2ccc(O)cc2)[C@H](O)[C@@H](O)[C@@H]1O", "melting point": 200}, {"smiles": "CN(C)Cc1cc(C(C)(C)C)c(O)c(C(C)(C)C)c1", "melting point": 93.5}, {"smiles": "CCCC(O)C(CC)CO", "note": "(configuration not stated)", "boiling point": 244, "log10 vapour pressure (mmHg)": -2.52, "melting point": -40}, {"smiles": "Nc1ccc(N)nc1", "melting point": 110, "ready biodegradability": "readily biodegradable"}, {"smiles": "NC(=O)CCl", "boiling point": 225, "melting point": 121}, {"smiles": "C=C(CC)c1ccccc1", "boiling point": 182}, {"smiles": "CCCCCCCCCCCCCCCCCC(C)=O", "melting point": 57}, {"smiles": "O=[N+]([O-])c1cc([N+](=O)[O-])c2ccccc2c1", "melting point": 148}, {"smiles": "COc1ccc(Nc2ccc(N)cc2)cc1", "melting point": 102}, {"smiles": "CC(=O)CC(=O)OC(C)C", "boiling point": 186, "melting point": -27.3}, {"smiles": "Nc1cc(Cl)c(Cl)cc1N", "melting point": 160}, {"smiles": "COC(=O)/C=C(\\C)OP(=O)(OC)OC", "log10 vapour pressure (mmHg)": -3.91, "melting point": 21}, {"smiles": "CC(C)(C)C(=O)OCOc1ccccc1C(N)=O", "melting point": 95}, {"smiles": "CCCC(=O)Oc1ccccc1", "boiling point": 225}, {"smiles": "Clc1ccc(-c2c(Cl)cc(Cl)c(Cl)c2Cl)c(Cl)c1Cl", "log10 Koa": 10.2, "log10 vapour pressure (mmHg)": -5.85}, {"smiles": "CC(C)(C)c1ccc(N)cc1", "boiling point": 241, "melting point": 17}, {"smiles": "COc1ccccc1OC(=O)c1ccccc1", "melting point": 57.5}, {"smiles": "Cc1cc(Cl)ccc1NC(=S)N(C)C", "melting point": 175}, {"smiles": "CC1C(=O)CC2CC1C2(C)C", "note": "(configuration not stated)", "boiling point": 212}, {"smiles": "CC(C)C[Si](Cl)(Cl)Cl", "boiling point": 143}, {"smiles": "Oc1ccc(-c2ccccc2)cc1Cl", "melting point": 77}, {"smiles": "FC1(F)C(Cl)=C(Cl)C(F)(F)C(F)(F)C1(F)F", "boiling point": 113, "melting point": -70}, {"smiles": "C1CCCSCC1", "boiling point": 174, "melting point": 0.5}, {"smiles": "CB(C)N(C)C", "boiling point": 65, "melting point": -92}, {"smiles": "O=C(O)Cc1cccc(Br)c1", "melting point": 101}, {"smiles": "O=C(O)CCCCCCCCCCCCCCCO", "melting point": 98}, {"smiles": "Cc1c(N)c(=O)n(-c2ccccc2)n1C", "melting point": 109}, {"smiles": "CC=NNc1ccccc1", "melting point": 99.5}, {"smiles": "CCCCCCCCCCCC(O)CC", "note": "(configuration not stated)", "melting point": 31.5}, {"smiles": "Clc1ccc(Cl)c(-c2c(Cl)cccc2Cl)c1Cl", "log10 Koa": 8.53}, {"smiles": "CC(Cl)C(Cl)Cl", "note": "(configuration not stated)", "boiling point": 132, "log10 vapour pressure (mmHg)": 0.491}, {"smiles": "Oc1cc(O)c2ccccc2c1", "melting point": 124}, {"smiles": "CCN(CC)CCOC(=O)c1ccc(N)cc1", "melting point": 61}, {"smiles": "CCCCOC(=O)CCl", "boiling point": 183}, {"smiles": "CCCCCCCCCCCC(=O)OCc1ccccc1", "melting point": 8.5}, {"smiles": "BrCCCCCCCCCCCCBr", "melting point": 41}, {"smiles": "CCOC(=O)C(Cl)(Cl)Cl", "boiling point": 168, "log10 vapour pressure (mmHg)": 0.581}, {"smiles": "CCCCCCCCCCCCOC(C)=O", "boiling point": 265, "melting point": 1.3}, {"smiles": "BrC(Br)(Br)c1ccc2ccccc2n1", "melting point": 128}, {"smiles": "CCCC(C)CBr", "note": "(configuration not stated)", "boiling point": 141}, {"smiles": "CCC(CC)c1ccccc1", "boiling point": 188}, {"smiles": "CN(C)c1ccc(N(C)C)cc1", "boiling point": 260, "melting point": 51}, {"smiles": "O=C(NNc1ccccc1)c1ccccc1", "boiling point": 314, "melting point": 168}, {"smiles": "COC(=O)CC#N", "boiling point": 200, "log10 vapour pressure (mmHg)": -0.86, "melting point": -22.5}, {"smiles": "CCC1CCCC1", "boiling point": 104, "log10 biodegradation half-life (days)": 1.18, "log10 vapour pressure (mmHg)": 1.6, "melting point": -138}, {"smiles": "O=C(O)c1cc(=O)c2cccc(O)c2[nH]1", "melting point": 289}, {"smiles": "CC(C)N(Cc1ccccc1)C(=O)C(C)(C)C", "log10 vapour pressure (mmHg)": -3.18}, {"smiles": "CCCCOC(=O)c1ccc(O)cc1", "melting point": 68.5}, {"smiles": "O=C1Cc2cccc3cccc1c23", "melting point": 121}, {"smiles": "CC1CCCC(C)N1C(=O)COC(=O)c1ccccc1", "note": "(configuration not stated)", "melting point": 118}, {"smiles": "COc1cccc(OC)c1O", "boiling point": 261, "log10 Henry constant (atm·m³/mol)": -6.64, "melting point": 56.5}, {"smiles": "O=C(O)[C@@H]1CCCO1", "melting point": 21}, {"smiles": "CCCCCCC(C)(C)O", "boiling point": 178}, {"smiles": "CCNC", "boiling point": 36.5}, {"smiles": "Cc1ccccc1", "boiling point": 111, "log10 Henry constant (atm·m³/mol)": -2.18, "log10 biodegradation half-life (days)": 0.301, "log10 vapour pressure (mmHg)": 1.45, "melting point": -94.9, "ready biodegradability": "readily biodegradable"}, {"smiles": "CC(=O)OCC1CCCO1", "note": "(configuration not stated)", "boiling point": 193}, {"smiles": "Brc1ccc(Oc2ccc(Br)cc2)cc1", "boiling point": 339, "log10 Koa": 8.64, "melting point": 60.5}, {"smiles": "CC=C1CCCCC1", "boiling point": 136}, {"smiles": "CCNCCN", "boiling point": 129}, {"smiles": "CC1OC(C)OC(C)OC(C)O1", "note": "(configuration not stated)", "log10 Koc (L/kg)": 2.38, "ready biodegradability": "not readily biodegradable"}, {"smiles": "COc1cccc(Br)c1", "boiling point": 211}, {"smiles": "CCCC[C@@H](O)CC", "log10 vapour pressure (mmHg)": -0.131}, {"smiles": "CCCCOCCC", "boiling point": 118}, {"smiles": "CCOC(=O)c1ccc(O)c(OC)c1", "boiling point": 292, "melting point": 44}, {"smiles": "CCOC(=O)CN1CCN(C(=O)/C=C\\c2cc(OC)c(OC)c(OC)c2)CC1", "melting point": 96}, {"smiles": "Cc1nnc(NS(=O)(=O)c2ccc(N)cc2)s1", "melting point": 208}, {"smiles": "O=C1NC(=O)C([N+](=O)[O-])C(=O)N1", "melting point": 180}, {"smiles": "COc1cc2ccc(=O)oc2c(O)c1O", "melting point": 231}, {"smiles": "CN1CCOCC1", "boiling point": 116}, {"smiles": "CCCCCCC(=O)OCCCC", "boiling point": 226, "melting point": -67.5}, {"smiles": "NC(=O)N1c2ccccc2CC(=O)c2ccccc21", "melting point": 216}, {"smiles": "CC(C)=CC1C(C(=O)OCN2C(=O)C3=C(CCCC3)C2=O)C1(C)C", "note": "(configuration not stated)", "melting point": 69, "ready biodegradability": "not readily biodegradable"}, {"smiles": "C=C1C[C@]23C[C@@]1(O)CC[C@H]2[C@@]12C=C[C@H](O)[C@@](C)(C(=O)O1)[C@H]2[C@@H]3C(=O)O", "melting point": 234}]}]}
